Experiments:
GR = target: T1, GR (Homo sapiens, UniProt P04150); assay: In Vitro GR Luciferase Reporter Assay (antagonist mode, CHO-K1-GR-MMTV-Luc reporter cells); type: cell-based; conditions: antagonist mode, 10 nM Dexamethasone
T1 construct: expressed in transfected cells; host or cells: CHO-K1
T1 sequence (P04150 1-777): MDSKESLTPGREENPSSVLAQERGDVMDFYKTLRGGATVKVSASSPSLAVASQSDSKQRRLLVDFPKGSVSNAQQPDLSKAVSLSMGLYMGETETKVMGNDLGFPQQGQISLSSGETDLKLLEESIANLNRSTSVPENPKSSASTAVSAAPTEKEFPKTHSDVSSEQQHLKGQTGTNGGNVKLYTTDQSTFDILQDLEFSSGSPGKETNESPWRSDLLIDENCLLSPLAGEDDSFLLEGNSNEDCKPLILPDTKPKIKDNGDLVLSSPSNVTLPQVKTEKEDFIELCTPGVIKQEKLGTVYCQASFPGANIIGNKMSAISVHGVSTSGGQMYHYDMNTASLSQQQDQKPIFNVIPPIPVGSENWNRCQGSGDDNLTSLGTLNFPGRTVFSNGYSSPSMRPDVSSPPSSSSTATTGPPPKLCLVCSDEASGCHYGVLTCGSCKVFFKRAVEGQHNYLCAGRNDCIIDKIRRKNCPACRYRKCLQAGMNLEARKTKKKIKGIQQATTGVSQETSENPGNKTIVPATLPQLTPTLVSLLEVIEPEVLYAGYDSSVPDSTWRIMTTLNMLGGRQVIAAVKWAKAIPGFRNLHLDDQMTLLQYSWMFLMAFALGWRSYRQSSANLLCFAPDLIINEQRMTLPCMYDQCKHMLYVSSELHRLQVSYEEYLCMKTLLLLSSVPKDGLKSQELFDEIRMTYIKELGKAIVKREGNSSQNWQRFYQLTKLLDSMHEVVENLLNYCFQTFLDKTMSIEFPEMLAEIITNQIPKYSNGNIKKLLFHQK
Outline: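 Antagonist mode: compounds (8 serial 1:5 dilutions) added to GR-MMTV-luciferase CHO-K1 reporter cells co-exposed to 10 nM dexamethasone final, in phenol red-free DMEM plus 10% CSS. After roughly 18-24 h at 37° C, OneGlo luminescence read and IC50 calculated.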

CYP2C8 = target: T2, CYP2C8 (Homo sapiens, UniProt P10632); assay: CYP Inhibition Assay (CYP2C8, human liver microsomes, paclitaxel substrate); type: in vitro ADME; conditions: pH 7.4; pooled human liver microsomes 0.1 mg/mL, probe substrate paclitaxel
T2 construct: Pooled human microsomes were obtained from Sekisui XenoTech, KS; tissue Sekisui XenoTech, KS; host or cells: pooled human liver microsomes
T2 sequence (P10632 1-490): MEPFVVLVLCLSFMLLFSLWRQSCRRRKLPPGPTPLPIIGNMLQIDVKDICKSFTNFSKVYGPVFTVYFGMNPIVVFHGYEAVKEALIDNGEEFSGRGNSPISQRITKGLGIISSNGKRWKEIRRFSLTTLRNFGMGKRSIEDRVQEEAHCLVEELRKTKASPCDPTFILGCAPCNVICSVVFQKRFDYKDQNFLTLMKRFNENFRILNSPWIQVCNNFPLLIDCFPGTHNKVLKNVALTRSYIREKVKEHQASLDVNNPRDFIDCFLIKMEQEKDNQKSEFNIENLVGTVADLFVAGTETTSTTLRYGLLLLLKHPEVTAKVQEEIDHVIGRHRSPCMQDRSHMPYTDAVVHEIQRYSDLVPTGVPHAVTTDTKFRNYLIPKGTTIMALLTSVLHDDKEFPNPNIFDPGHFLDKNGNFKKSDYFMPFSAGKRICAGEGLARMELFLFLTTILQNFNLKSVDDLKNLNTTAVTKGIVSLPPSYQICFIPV
Outline: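 CYP2C8 activity read as 6α-hydroxypaclitaxel formation by LC-MS/MS, with % inhibition versus vehicle control. Reactions ran 5 min at 37° C, pH 7.4 phosphate buffer, 0.1 mg/mL pooled human liver microsomes, 1 mM NADPH, duplicate wells.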

Row | SMILES | IC50 (GR) [µM] | inhibition at 5 min (CYP2C8) [%]
1 | Cn1cc(S(=O)(=O)N(C2CC2)[C@H]2CCC3=Cc4c(cnn4-c4ccc(F)cc4)C[C@]3(C(=O)c3cc(F)ccn3)C2)nn1 [Example 265, N-cyclopropyl-N-((4aS,6S)-1-(4-fluorophenyl)-4a-(4-fluoropicolinoyl)-4,4a,5,6,7,8-hexahydro-1H-benzo[f]indazol-6-yl)-1-methyl-1H-1,2,3-triazole-4-sulfonamide] | ≤ 0.1 | 50 to 75
2 | Cn1ccnc1S(=O)(=O)N(C1CC1)[C@H]1CCC2=Cc3c(cnn3-c3ccc(F)cc3)C[C@]2(C(=O)c2ncc(C(F)(F)F)s2)C1 [Example 266, N-cyclopropyl-N-((4aS,6S)-1-(4-fluorophenyl)-4a-(5 (trifluoromethyl)thiazole-2-carbonyl)-4,4a,5,6,7,8-hexahydro-1H-benzo[f]indazol-6-yl)-1-methyl-1H-imidazole-2-sulfonamide] | ≤ 0.1 | 75 to 90
3 | Cn1ccc(S(=O)(=O)N(C2CC(F)(F)C2)[C@H]2CCC3=Cc4c(cnn4-c4ccc(F)cc4)C[C@]3(C(=O)c3cc(F)ccn3)C2)n1 [Example 267, N-(3,3-difluorocyclobutyl)-N-((4aS,6S)-1-(4-fluorophenyl)-4a-(4-fluoropicolinoyl)-4,4a,5,6,7,8-hexahydro-1H-benzo[f]indazol-6-yl)-1-methyl-1H-pyrazole-3-sulfonamide] | ≤ 0.1 | 50 to 75
4 | Cn1cc(S(=O)(=O)N(C2CC2)[C@H]2CCC3=Cc4c(cnn4-c4ccc(F)cc4)C[C@]3(C(=O)c3cc(Cl)ccn3)C2)nn1 [Example 268, N-((4aS,6S)-4a-(4-chloropicolinoyl)-1-(4-fluorophenyl)-4,4a,5,6,7,8-hexahydro-1H-benzo[f]indazol-6-yl)-N-cyclopropyl-1-methyl-1H-1,2,3-triazole-4-sulfonamide] | ≤ 0.1 | 50 to 75
5 | CC(C)N([C@H]1CCC2=Cc3c(cnn3-c3ccc(F)cc3)C[C@]2(C(=O)c2cc(Cl)ccn2)C1)S(=O)(=O)c1cnn(C)n1 [Example 269, N-((4aS,6S)-4a-(4-chloropicolinoyl)-1-(4-fluorophenyl)-4,4a,5,6,7,8-hexahydro-1H-benzo[f]indazol-6-yl)-N-isopropyl-2-methyl-2H-1,2,3-triazole-4-sulfonamide] | ≤ 0.1 | 75 to 90
6 | Cn1ccc(S(=O)(=O)[C@H]2CCC3=Cc4c(cnn4-c4ccc(F)cc4)C[C@]3(C(=O)c3ccc(C(F)(F)F)cn3)C2)n1 [Example 272, ((4aS,6S)-1-(4-fluorophenyl)-6-((1-methyl-1H-pyrazol-3-yl)sulfonyl)-1,4,5,6,7,8-hexahydro-4aH-benzo[f]indazol-4a-yl)(5-(trifluoromethyl)pyridin-2-yl)methanone] | ≤ 0.1 | ≤ 25
7 | O=C(c1cc(C(F)(F)F)ccn1)[C@]12Cc3cnn(-c4ccc(F)cc4)c3C=C1CC[C@H](N(CC1CC1)S(=O)(=O)c1ccc(F)cc1)C2 [Example 273, N-(cyclopropylmethyl)-4-fluoro-N-((4aS,6S)-1-(4-fluorophenyl)-4a-(4-(trifluoromethyl)picolinoyl)-4,4a,5,6,7,8-hexahydro-1H-benzo[f]indazol-6-yl)benzenesulfonamide] | ≤ 0.1 | ≤ 25

Next, values leading:

Row | IC50 (GR) [µM] | inhibition at 5 min (CYP2C8) [%] | SMILES
8 | ≤ 0.1 | 50 to 75 | CC(C)N([C@H]1CCC2=Cc3c(cnn3-c3ccc(F)cc3)C[C@]2(C(=O)c2cc(C(F)(F)F)ccn2)C1)S(=O)(=O)c1ccc(Cl)nc1 [Example 279, 6-chloro-N-((4aS,6S)-1-(4-fluorophenyl)-4a-(4-(trifluoromethyl)picolinoyl)-4,4a,5,6,7,8-hexahydro-1H-benzo[f]indazol-6-yl)-N-isopropylpyridine-3-sulfonamide]
9 | ≤ 0.1 | 25 to 50 | Cn1cc(S(=O)(=O)N(CC(F)(F)F)[C@H]2CCC3=Cc4c(cnn4-c4ccc(F)cc4)C[C@]3(C(=O)c3cc(Cl)ccn3)C2)cn1 [Example 280, N-((4aS,6S)-4a-(4-chloropicolinoyl)-1-(4-fluorophenyl)-4,4a,5,6,7,8-hexahydro-1H-benzo[f]indazol-6-yl)-1-methyl-N-(2,2,2-trifluoroethyl)-1H-pyrazole-4-sulfonamide]
10 | ≤ 0.1 | 25 to 50 | CC(C)N([C@H]1CCC2=Cc3c(cnn3-c3ccc(F)cc3)C[C@]2(C(=O)c2ncc(C(F)(F)F)s2)C1)S(=O)(=O)c1cn(C)nn1 [Example 282, N-((4aS,6S)-1-(4-fluorophenyl)-4a-(5-(trifluoromethyl)thiazole-2-carbonyl)-4,4a,5,6,7,8-hexahydro-1H-benzo[f]indazol-6-yl)-N-isopropyl-1-methyl-1H-1,2,3-triazole-4-sulfonamide]
11 | ≤ 0.1 | ≤ 25 | CC(C)N([C@H]1CCC2=Cc3c(cnn3-c3ccc(F)cc3)C[C@]2(C(=O)c2ncc(C(F)(F)F)s2)C1)S(=O)(=O)c1ccc(Cl)nc1 [Example 283, 6-chloro-N-((4aS,6S)-1-(4-fluorophenyl)-4a-(5-(trifluoromethyl)thiazole-2-carbonyl)-4,4a,5,6,7,8-hexahydro-1H-benzo[f]indazol-6-yl)-N-isopropylpyridine-3-sulfonamide]
12 | ≤ 0.1 | 75 to 90 | CC(C)N([C@H]1CCC2=Cc3c(cnn3-c3ccc(F)cc3)C[C@]2(C(=O)c2cc(C(F)(F)F)ccn2)C1)S(=O)(=O)c1cn(C)nn1 [Example 286, N-((4aS,6S)-1-(4-fluorophenyl)-4a-(4-(trifluoromethyl)picolinoyl)-4,4a,5,6,7,8-hexahydro-1H-benzo[f]indazol-6-yl)-N-isopropyl-1-methyl-1H-1,2,3-triazole-4-sulfonamide]
13 | ≤ 0.1 | 25 to 50 | O=C(c1cc(C(F)(F)F)ccn1)[C@]12Cc3cnn(-c4ccc(F)cc4)c3C=C1CC[C@H](N(C1CC1)S(=O)(=O)c1ccc(Cl)cn1)C2 [Example 287, 5-chloro-N-cyclopropyl-N-((4aS,6S)-1-(4-fluorophenyl)-4a-(4-(trifluoromethyl)picolinoyl)-4,4a,5,6,7,8-hexahydro-1H-benzo[f]indazol-6-yl)pyridine-2-sulfonamide]
14 | ≤ 0.1 | ≤ 25 | Cn1ccc(S(=O)(=O)N([C@H]2CCC3=Cc4c(cnn4-c4ccc(F)cc4)C[C@]3(C(=O)c3cc(Cl)ccn3)C2)[C@H]2C[C@@](C)(O)C2)n1 [Example 288, N-((4aS,6S)-4a-(4-chloropicolinoyl)-1-(4-fluorophenyl)-4,4a,5,6,7,8-hexahydro-1H-benzo[f]indazol-6-yl)-N-((1s,3R)-3-hydroxy-3-methylcyclobutyl)-1-methyl-1H-pyrazole-3-sulfonamide]
15 | ≤ 0.1 | ≤ 25 | Cn1ccc(S(=O)(=O)[C@@]2(F)CCC3=Cc4c(cnn4-c4ccc(F)cc4)C[C@]3(C(=O)c3ccc(C(F)(F)F)cn3)C2)n1 [Example 289, ((4aS,6S)-6-fluoro-1-(4-fluorophenyl)-6-((1-methyl-1H-pyrazol-3-yl)sulfonyl)-1,4,5,6,7,8-hexahydro-4aH-benzo[f]indazol-4a-yl)(5-(trifluoromethyl)pyridin-2-yl)methanone]
16 | ≤ 0.1 | 25 to 50 | Cn1cc(S(=O)(=O)N(CC(F)(F)F)[C@H]2CCC3=Cc4c(cnn4-c4ccc(F)cc4)C[C@]3(C(=O)c3ncc(C(F)(F)F)s3)C2)nn1 [Example 290, N-((4aS,6S)-1-(4-fluorophenyl)-4a-(5-(trifluoromethyl)thiazole-2-carbonyl)-4,4a,5,6,7,8-hexahydro-1H-benzo[f]indazol-6-yl)-1-methyl-N-(2,2,2-trifluoroethyl)-1H-1,2,3-triazole-4-sulfonamide]

From patent US20210122730A1, “GLUCOCORTICOID RECEPTOR MODULATORS” (ORIC Pharmaceuticals, Inc., priority 2017, published 2021)
